Source: ChEMBL document CHEMBL6121026, “Targeted Therapeutics in Oncology and Neurology: Advances in Kinase Inhibition and Biomarkers for Brain Injury” (ACS Med Chem Lett, 2025)
pIC50: −log10 of the molar value.

What was measured:
[1] = molecular target: RAC-alpha serine/threonine-protein kinase (Homo sapiens, UniProt P31749); test: Inhibition of Nano Luc-fused wild type AKT1 (unknown origin) expressed in HEK293 cells using luciferase substrate preincubated for 2 hrs followed by substrate added by NanoBRET Live cell target engagement assay; assay type: cell-based
[2] = molecular target: RAC-beta serine/threonine-protein kinase (Homo sapiens, UniProt P31751); test: Inhibition of Nano Luc-fused wild type AKT2 (unknown origin) expressed in HEK293 cells using luciferase substrate preincubated for 2 hrs followed by substrate added by NanoBRET Live cell target engagement assay; assay type: cell-based
Sequence of RAC-beta serine/threonine-protein kinase (P31751 whole entry, the tested form may be a part): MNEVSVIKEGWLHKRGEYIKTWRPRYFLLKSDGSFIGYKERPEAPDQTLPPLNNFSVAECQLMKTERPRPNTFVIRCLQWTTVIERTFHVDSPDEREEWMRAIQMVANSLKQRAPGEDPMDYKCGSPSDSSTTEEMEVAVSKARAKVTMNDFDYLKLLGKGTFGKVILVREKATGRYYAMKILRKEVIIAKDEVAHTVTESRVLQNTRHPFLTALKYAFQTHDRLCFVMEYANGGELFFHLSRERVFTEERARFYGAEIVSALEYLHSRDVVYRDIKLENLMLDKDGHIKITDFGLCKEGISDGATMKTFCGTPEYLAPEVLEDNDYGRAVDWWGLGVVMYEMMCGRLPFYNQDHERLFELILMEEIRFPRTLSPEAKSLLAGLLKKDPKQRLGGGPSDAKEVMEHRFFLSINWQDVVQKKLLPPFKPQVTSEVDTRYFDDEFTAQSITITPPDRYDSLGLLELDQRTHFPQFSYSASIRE

Sequence of RAC-alpha serine/threonine-protein kinase (P31749 whole entry, the tested form may be a part): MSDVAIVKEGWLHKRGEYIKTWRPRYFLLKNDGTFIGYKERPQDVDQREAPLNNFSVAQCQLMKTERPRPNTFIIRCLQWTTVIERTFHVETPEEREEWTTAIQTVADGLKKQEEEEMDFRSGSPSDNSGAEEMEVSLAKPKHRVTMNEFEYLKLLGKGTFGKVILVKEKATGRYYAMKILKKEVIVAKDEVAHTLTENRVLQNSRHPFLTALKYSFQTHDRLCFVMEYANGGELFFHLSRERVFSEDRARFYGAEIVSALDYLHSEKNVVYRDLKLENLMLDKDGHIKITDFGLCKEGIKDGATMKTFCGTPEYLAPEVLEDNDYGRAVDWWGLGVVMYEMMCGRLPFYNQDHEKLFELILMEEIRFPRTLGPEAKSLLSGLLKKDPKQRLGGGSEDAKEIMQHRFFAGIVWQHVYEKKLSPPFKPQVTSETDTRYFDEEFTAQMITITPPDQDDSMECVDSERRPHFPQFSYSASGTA

SMILES	pIC50 [1]	pIC50 [2]
Nc1ncccc1-c1nc2ccc(-c3ccccc3)nc2n1-c1ccc2c(c1)CC[C@@H]2NC(=O)c1cc(C=O)c2[nH]ncc2c1	≥ 7.00	≥ 7.00
CN1CCN(c2cccc(-c3ccc4nc(-c5cccnc5N)n(-c5ccc6c(c5)CC[C@@H]6NC(=O)c5ccc(O)c(C=O)c5)c4n3)c2)CC1	≥ 8.00	≥ 8.00
Nc1ncccc1-c1nc2ccc(-c3ccccc3)nc2n1-c1ccc2c(c1)CC[C@@H]2NC(=O)c1cc(C=O)c(O)c(F)c1F	≥ 7.00	≥ 7.00
CC(=O)Nc1ccc(C(=O)N[C@H]2CCc3cc(-n4c(-c5cccnc5N)nc5ccc(-c6ccccc6)nc54)ccc32)cc1C=O	≥ 8.00	≥ 7.00
COc1cnn(-c2ccc3nc(-c4cccnc4N)n(-c4ccc5c(c4)CC[C@@H]5NC(=O)c4ccc(O)c(C=O)c4)c3n2)c1	≥ 7.00	≤ 5.70
CS(=O)(=O)Nc1ccc(C(=O)N[C@H]2CCc3cc(-n4c(-c5cccnc5N)nc5ccc(-n6cccn6)nc54)ccc32)cc1C=O	≥ 7.00	≤ 5.70
Nc1ncccc1-c1nc2ccc(-c3ccccc3F)nc2n1-c1ccc2c(c1)CC[C@@H]2NC(=O)c1ccc(O)c(C=O)c1	≥ 7.00	≥ 7.00
Nc1ncccc1-c1nc2ccc(-n3cccn3)nc2n1-c1ccc2c(c1)CC[C@@H]2NC(=O)c1cc(C=O)c(O)c(F)c1F	≥ 7.00	≥ 7.00
